Consider 25 molecules from patent publication US9796706B2, “Inhibitors of Jun N-terminal kinase” (IMAGO PHARMACEUTICALS, INC., priority 2009, dated 2017).

Common to all, as to assay type: biochemical
Holding throughout (details): procedures of Example 14 (TR-FRET)

For test [1], the target named is JNK3 (Homo sapiens (Human), UniProt P53779). Put plainly: JNK3 TR-FRET kinase assay (Example 14). As for the experimental part: (§1) 14.3. Active JNK 1, 2 and 3 TR-FRET Assay
(§2) (1) Assay buffer #1 with 0.0025% Tween and 1 mM DTT was prepared using JNK buffer stock solution.
(§3) (2) Assay buffer #2 with 0.025% BSA was prepared using the assay buffer #1.
(§4) (3) Test compound solution preparation: 5× compound solution was prepared using assay buffer #1 with 5% DMSO. The compound solution (10 μl/well) was added to a 384-well plate (Corning, Cat No. 3654).
(§5) (4) aJNK1, 2 or 3 preparation: aJNK stock (100 μg/ml) at −80° C. was thawed on ice and an aJNK (1.6 ng/ml) solution was prepared using assay buffer #2. The aJNK solution (20 μl/well) was added to the plate and the plate was shaken. The enzyme was incubated with the compound at RT for 10 min. (5) ATP/substrate solution preparation: ATP and substrate stocks were thawed on ice. 2.5×ATP/substrate (e.g., 25 μM or 2.5 mM ATP/50 nM EPIW-1) was prepared using assay buffer #1. The ATP/substrate (20 μl/well) was added to the plate and the plate was shaken. The plate was incubated at RT for 15 min. Note: In an exemplary assay, the final ATP concentration was about 1 mM. (6) EDTA preparation: 30 mM EDTA was prepared using 0.5M EDTA stock and assay buffer #1. The EDTA (10 μl/well) was added to the plate to quench the enzyme reaction and the plate was shaken well. (7) Detection reagent preparation: Eu-63 and SA-XL stocks were thawed on ice. 4× Eu-63/SA-XL (2 nM Eu-63/9.4 nM SA-XL) was prepared using JNK detection buffer. The Eu-63/SA-XL solution (20 μl/well) was added to the plate and the plate was shaken. The plate was incubated at RT for 1 hr before reading the plate on LJL using ratiometric method named HTRF.
(§6) 14.4. Coupled JNK 1, 2 and 3 TR-FRET Assay
(§7) (1) Assay buffer with 0.0025% Tween, 0.01% BSA, and 1 mM DTT was prepared using JNK buffer stock solution.
(§8) (2) Test compound solution preparation: 5× compound solution, including EDTA background, was prepared using assay buffer with 5% DMSO. The compound solution (10 μl/well) was added to a 384-well plate (Corning, Cat No. 3654).
(§9) (3) uJNK1,2, or 3 activation reaction preparation: uJNK activation solution was prepared using assay buffer (1.6 ng/ml MKK4, 1.6 ng/ml MKK7, 16 ng/ml uJNK, and 20 uM ATP final). The uJNK activation solution (35 μl/well) was added to the plate, the plate was shaken, and the reaction mixture was incubated with compound at 30° C. for 60 min. (4) c-Jun substrate solution preparation: 50 nM EPIW-1, c-Jun peptide, was prepared using assay buffer (15 nM final). The EPIW-1 solution (15 μl/well) was added to the plate, the plate was shaken and incubated at 30° C. for 60 min. (5) EDTA preparation: 30 mM EDTA was prepared using 0.5M EDTA stock and assay buffer. The EDTA (10 μl/well) was added to the plate to quench the enzyme reaction and the plate was shaken well. (6) Detection reagent preparation: Eu-73 and SA-XL stocks were thawed on ice. 4× Eu-73/SA-XL (2 nM Eu-73/9.4 nM SA-XL) were prepared using JNK detection buffer. The Eu-73/SA-XL solution (20 μl/well) was added to the plate. The plate was shaken and incubated at RT for 1 hr before reading the plate on LJL using ratiometric method named HTRF.

Test [2] addresses JNK1 (Homo sapiens (Human), UniProt P45983). Nature of the test: JNK1 TR-FRET kinase assay (Example 14). As for the experimental part: as §1, §2, §3, §4, §5, §6, §7, §8, §9
The target in test [3] is JNK2 (Homo sapiens (Human), UniProt P45984). Put plainly: JNK2 TR-FRET kinase assay (Example 14). As for the experimental part: as §1, §2, §3, §4, §5, §6, §7, §8, §9
(In TR-FRET formats the signal depends on donor and acceptor labels being close together.)

Sequence of JNK2 (P45984 whole entry, species assumed): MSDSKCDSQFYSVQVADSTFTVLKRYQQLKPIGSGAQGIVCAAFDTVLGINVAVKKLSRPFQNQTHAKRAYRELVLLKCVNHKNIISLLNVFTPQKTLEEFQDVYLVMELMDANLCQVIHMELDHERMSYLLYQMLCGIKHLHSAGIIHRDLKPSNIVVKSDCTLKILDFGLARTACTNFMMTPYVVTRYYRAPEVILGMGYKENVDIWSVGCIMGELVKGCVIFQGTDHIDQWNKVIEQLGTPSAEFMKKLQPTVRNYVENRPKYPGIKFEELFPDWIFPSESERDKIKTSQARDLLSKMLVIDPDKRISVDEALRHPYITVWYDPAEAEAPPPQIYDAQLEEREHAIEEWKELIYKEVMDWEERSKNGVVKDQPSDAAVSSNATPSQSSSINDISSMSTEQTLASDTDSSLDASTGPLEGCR
Sequence of JNK1 (P45983 other isoform, or with tags, fused parts or gaps isoform P45983-2, species assumed): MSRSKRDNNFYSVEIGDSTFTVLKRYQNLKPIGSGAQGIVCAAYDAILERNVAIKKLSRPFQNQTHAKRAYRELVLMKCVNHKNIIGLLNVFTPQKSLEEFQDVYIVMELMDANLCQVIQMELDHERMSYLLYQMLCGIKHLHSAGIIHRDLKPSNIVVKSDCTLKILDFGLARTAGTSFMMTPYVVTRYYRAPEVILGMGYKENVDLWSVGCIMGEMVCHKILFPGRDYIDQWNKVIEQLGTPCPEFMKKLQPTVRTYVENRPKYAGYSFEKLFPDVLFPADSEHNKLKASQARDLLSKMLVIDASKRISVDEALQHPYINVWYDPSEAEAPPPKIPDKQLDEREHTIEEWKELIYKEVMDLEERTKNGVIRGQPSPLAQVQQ
Sequence of JNK3 (P53779 whole entry, species assumed): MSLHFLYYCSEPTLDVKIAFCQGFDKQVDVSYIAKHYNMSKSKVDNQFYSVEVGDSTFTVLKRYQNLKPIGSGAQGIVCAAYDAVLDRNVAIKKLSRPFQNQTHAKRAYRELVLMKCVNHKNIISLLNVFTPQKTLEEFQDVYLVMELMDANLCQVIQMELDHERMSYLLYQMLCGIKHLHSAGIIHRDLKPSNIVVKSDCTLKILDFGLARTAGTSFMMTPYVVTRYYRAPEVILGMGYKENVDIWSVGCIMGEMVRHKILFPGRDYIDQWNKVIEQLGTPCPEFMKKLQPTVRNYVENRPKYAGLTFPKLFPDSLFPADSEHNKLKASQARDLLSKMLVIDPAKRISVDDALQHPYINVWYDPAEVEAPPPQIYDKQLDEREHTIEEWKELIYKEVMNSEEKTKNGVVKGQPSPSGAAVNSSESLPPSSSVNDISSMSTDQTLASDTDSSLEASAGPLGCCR

What is called IC50 is the midpoint of a concentration-inhibition curve. Higher therefore signals weaker potency. Take `O=C(Cc1cccc2ccccc12)Nc1ccsc1-c1ncn[nH]1` [N-(2-(1H-1,2,4-triazol-5-yl)thiophen-3-yl)-2-(naphthalen-1-yl)acetamide]: the IC50 in test [1], in test [2] and in test [3] was 0.1 to 10 µM each time.
Take `O=C(Cc1cccc2ncccc12)Nc1ccsc1-c1nnc[nH]1` [N-(2-(1H-1,2,4-triazol-5-yl)thiophen-3-yl)-2-(quinolin-5-yl)acetamide]: the IC50 in test [1], in test [2] and in test [3] was 0.1 to 10 µM throughout.
For `O=C(Cc1cccc2ccccc12)Nc1ccsc1-n1ccnc1` [N-(2-(1H-imidazol-1-yl)thiophen-3-yl)2-(naphthalen-1-yl)acetamide], the half-inhibitory concentration (IC50) in test [1] was 0.1 to 10 µM; in test [2] it was above 10 µM; in test [3], above 50 µM.
Regarding `O=C(CN1C(=O)CCc2ccccc21)Nc1ccsc1-c1c[nH]cn1` [N-(2-(1H-imidazol-4-yl)thiophen-3-yl)-2-(2-oxo-3,4-dihydroquinolin-1(2H)-yl)acetamide], the IC50 in test [1] is 0.1 to 10 µM; in test [2] it was 0.1 to 10 µM; in test [3], above 10 µM.
As to `COc1ccc(CC(=O)Nc2ccsc2-c2c[nH]cn2)cc1` [N-(2-(1H-imidazol-4-yl)thiophen-3-yl)-2-(4-methoxyphenyl)-acetamide], the IC50 in test [1] is above 10 µM; in test [2], above 10 µM; in test [3], above 50 µM.
Take `COc1ccc(CC(=O)Nc2ccsc2-n2cccn2)cc1` [N-(2-(1H-pyrazol-1-yl)thiophen-3-yl)-2-(4-methoxyphenyl)-acetamide]: the figures for the IC50 in test [1], in test [2] and in test [3] were above 10 µM, above 10 µM and above 50 µM, respectively.
Regarding `O=C(Cc1cccc2cnccc12)Nc1ccsc1-c1csc(Cl)n1` [N-(2-(2-chlorothiazol-4-yl)thiophen-3-yl)-2-(isoquinolin-5-yl)acetamide], the half-maximal inhibitory concentration (IC50) was 0.1 to 10 µM in test [1], 0.1 to 10 µM in test [2] and above 10 µM in test [3].
Regarding `Cc1nc(-c2sccc2NC(=O)CN2C(=O)CCc3ccccc32)c[nH]1` [N-(2-(2-methyl-1H-imidazol-4-yl)thiophen-3-yl)-2-(2-oxo-3,4-dihydroquinolin-1(2H)-yl)acetamide], the 50% inhibitory concentration (IC50) was above 10 µM in test [1], above 10 µM in test [2] and above 50 µM in test [3].
`COc1ccc(CC(=O)Nc2ccsc2-n2nccn2)cc1` [N-(2-(2H-1,2,3-triazol-2-yl)thiophen-3-yl)-2-(4-methoxyphenyl)acetamide]: the half-inhibitory concentration (IC50) in test [1], in test [2] and in test [3] was 0.1 to 10 µM throughout.
On to `COc1ccc(CC(=O)Nc2ccsc2-c2nc(C3CC3)n[nH]2)cc1` [N-(2-(3-cyclopropyl-1H-1,2,4-triazol-5-yl)thiophen-3-yl)-2-(4-methoxyphenyl)acetamide], for which the IC50 in test [1], in test [2] and in test [3] was 0.1 to 10 µM throughout.
`CCc1n[nH]c(-c2sccc2NC(=O)Cc2ccc(OC)cc2)n1` [N-(2-(3-ethyl-1H-1,2,4-triazol-5-yl)thiophen-3-yl)-2-(4-methoxyphenyl)acetamide]: the IC50 in test [1], in test [2] and in test [3] was 0.1 to 10 µM throughout.
As for `Cc1n[nH]c(-c2sccc2NC(=O)Cc2cccc3ccccc23)n1` [N-(2-(3-methyl-1H-1,2,4-triazol-5-yl)thiophen-3-yl)-2-(naphthalen-1-yl)acetamide], the 50% inhibitory concentration (IC50) in test [1], in test [2] and in test [3] was 0.1 to 10 µM each time.
Take `COc1ccc(CC(=O)Nc2ccsc2-c2nc(C(C)(C)C)n[nH]2)cc1` [N-(2-(3-tert-butyl-1H-1,2,4-triazol-5-yl)thiophen-3-yl)-2-(4-methoxyphenyl)acetamide]: the 50% inhibitory concentration (IC50) in test [1] was 0.1 to 10 µM; in test [2] it was 0.1 to 10 µM; in test [3], above 10 µM.
As for `COc1ccc(CC(=O)Nc2ccsc2-c2nnc(C(C)C)o2)cc1` [N-(2-(5-isopropyl-1,3,4-oxadiazol-2-yl)thiophen-3-yl)-2-(4-methoxyphenyl)acetamide], the IC50 in test [1] is above 10 µM; in test [2] it was above 10 µM; in test [3] it was above 50 µM.
In the case of `Cc1nnc(-c2sccc2NC(=O)Cc2cccc3ccccc23)o1` [N-(2-(5-methyl-1,3,4-oxadiazol-2-yl)thiophen-3-yl)-2-(naphthalen-1-yl)acetamide], the IC50 in test [1] was 0.1 to 10 µM; in test [2], 0.1 to 10 µM; in test [3], above 10 µM.
On to `O=C(Cn1c(=O)ccc2cc(F)c(F)cc21)Nc1sccc1-c1ncon1` [N-(3-(1,2,4-oxadiazol-3-yl)thiophen-2-yl)-2-(6,7-difluoro-2-oxoquinolin-1(2H)-yl)acetamide], for which the IC50 in test [1] was 0.1 to 10 µM; in test [2] it was below 0.1 µM; in test [3], 0.1 to 10 µM.
As to `COCn1nnnc1-c1ccsc1NC(=O)Cc1ccc(OC)cc1` [N-(3-(1-(methoxymethyl)-1H-tetrazol-5-yl)thiophen-2-yl)-2-(4-methoxyphenyl)acetamide], the values for the IC50 in test [1], in test [2] and in test [3] were 0.1 to 10 µM, 0.1 to 10 µM and above 50 µM, respectively.
As for `O=C(CN1C(=O)CCc2ccccc21)Nc1sccc1-c1ncn[nH]1` [N-(3-(1H-1,2,4-triazol-5-yl)thiophen-2-yl)-2-(2-oxo-3,4-dihydroquinolin-1(2H)-yl)acetamide], the half-maximal inhibitory concentration (IC50) was 0.1 to 10 µM in test [1], below 0.1 µM in test [2] and 0.1 to 10 µM in test [3].
For the molecule `N#Cc1csc(NC(=O)Cn2c(=O)ccc3cc(C(F)(F)F)ccc32)c1-n1nnc2ccccc21` [N-(3-(1H-benzo[d][1,2,3]triazol-1-yl)-4-cyanothiophen-2-yl)-2-(2-oxo-6-(trifluoromethyl)quinolin-1(2H)-yl)acetamide], the IC50 in test [1], in test [2] and in test [3] was 0.1 to 10 µM in each case.
As for `COCn1nnc(-c2ccsc2NC(=O)Cc2ccc(OC)cc2)n1` [N-(3-(2-(methoxymethyl)-2H-tetrazol-5-yl)thiophen-2-yl)-2-(4-methoxyphenyl)acetamide], the IC50 in test [1], in test [2] and in test [3] was above 50 µM in each case.
With `N#Cc1csc(NC(=O)CN2C(=O)CCc3ncccc32)c1-c1nc2ccccc2s1` [N-(3-(benzo[d]thiazol-2-yl)-4-cyanothiophen-2-yl)-2-(2-oxo-3,4-dihydro-1,5-naphthyridin-1(2H)-yl)acetamide], the IC50 in test [1], in test [2] and in test [3] was 0.1 to 10 µM throughout.
On to `Cc1csc(NC(=O)Cc2cccc3cnccc23)c1-c1nc2ccccc2s1` [N-(3-(benzo[d]thiazol-2-yl)-4-methylthiophen-2-yl)-2-(isoquinolin-5-yl)acetamide], for which the concentration for half-maximal inhibition (IC50) in test [1] was 0.1 to 10 µM; in test [2] it was 0.1 to 10 µM; in test [3], above 10 µM.
On to `O=C(Cc1cccc2cnccc12)Nc1scnc1-c1cscn1` [N-(4,4′-bithiazol-5-yl)-2-(isoquinolin-5-yl)acetamide], for which the figures for the concentration for half-maximal inhibition (IC50) in test [1], in test [2] and in test [3] were below 0.1 µM, below 0.1 µM and 0.1 to 10 µM, respectively.
On to `O=C(Cc1cccc2cnccc12)Nc1scnc1-c1ncn[nH]1` [N-(4-(1H-1,2,4-triazol-5-yl)thiazol-5-yl)-2-(isoquinolin-5-yl)acetamide], for which the concentration for half-maximal inhibition (IC50) in test [1], in test [2] and in test [3] was 0.1 to 10 µM throughout.
With `Cn1cnc(-c2c(Br)csc2NC(=O)CN2C(=O)CCc3ncccc32)n1` [N-(4-bromo-3-(1-methyl-1H-1,2,4-triazol-3-yl)thiophen-2-yl)-2-(2-oxo-3,4-dihydro-1,5-naphthyridin-1(2H)-yl)acetamide], the half-inhibitory concentration (IC50) in test [1], in test [2] and in test [3] was below 0.1 µM throughout.
